Patent US10722501B2 (BAYER AKTIENGESELLSCHAFT, priority 2016, dated 2020)

Molecular target: T1, recombinant full-length human prolyl endopeptidase (PREP) (Homo sapiens, UniProt P48147)
T1 construct: To recombinant full-length human prolyl endopeptidase (PREP, R&D-Systems, 4308-SE); purchased R&D-Systems 4308-SE
T1 sequence (P48147 1-710): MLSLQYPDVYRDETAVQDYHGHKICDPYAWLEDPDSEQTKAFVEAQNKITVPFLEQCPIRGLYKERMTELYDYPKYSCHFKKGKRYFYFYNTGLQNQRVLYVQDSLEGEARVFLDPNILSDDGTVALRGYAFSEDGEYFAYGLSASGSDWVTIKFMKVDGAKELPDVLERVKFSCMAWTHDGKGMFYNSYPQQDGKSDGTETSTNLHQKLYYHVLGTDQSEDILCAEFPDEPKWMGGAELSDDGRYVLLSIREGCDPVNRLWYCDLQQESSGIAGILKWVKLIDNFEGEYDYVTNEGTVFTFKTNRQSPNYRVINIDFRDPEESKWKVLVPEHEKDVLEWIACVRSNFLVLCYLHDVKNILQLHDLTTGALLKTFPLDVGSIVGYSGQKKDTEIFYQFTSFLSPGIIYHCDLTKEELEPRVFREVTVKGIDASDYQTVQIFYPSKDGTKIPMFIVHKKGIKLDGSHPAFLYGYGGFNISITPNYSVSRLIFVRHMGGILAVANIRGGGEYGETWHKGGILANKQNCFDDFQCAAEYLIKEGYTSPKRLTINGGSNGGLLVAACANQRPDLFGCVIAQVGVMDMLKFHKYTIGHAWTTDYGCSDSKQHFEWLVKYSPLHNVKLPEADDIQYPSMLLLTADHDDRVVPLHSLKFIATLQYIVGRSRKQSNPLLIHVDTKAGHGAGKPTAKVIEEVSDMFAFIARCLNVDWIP
Test: Biochemical human prolyl endopeptidase (PREP) assay with fluorescently labelled substrate
Conditions: substrate Z-Gly-Pro-AMC 50 μM, 32° C., 60 min; some as mean values from multiple independent determinations
Summary of the method: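 0.4 nM (final, example) recombinant PREP in pH 7.5 Tris buffer with EDTA, GSH, BSA and Brij-35; compounds at 1 nM to 30 μM. Reaction started with 50 μM Z-Gly-Pro-AMC and followed by fluorescence (ex 360/em 465 nm) at 32° C for 60 min. IC50 interpolated from percent activity based on initial slopes.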

| SMILES | IC50 [nM] |
| --- | --- |
| Cc1ccc(Cn2nc3n(c2=O)[C@H](C(=O)N2CC(C(F)F)C2)CCC3)cc1 [Example 149, (5S)-5-{[3-(Difluoromethyl)azetidin-1-yl]carbonyl}-2-(4-methylbenzyl)-5,6,7,8-tetrahydro[1,2,4]triazolo[4,3-a]pyridin-3(2H)-one] | 2.5 |
| Cc1ccc(Cn2nc3n(c2=O)[C@H](C(=O)N2C[C@@H](F)[C@@H](F)C2)CCC3)cc1 [Example 150, (5S)-5-{[cis-3,4-Difluoropyrrolidin-1-yl]carbonyl}-2-(4-methylbenzyl)-5,6,7,8-tetrahydro[1,2,4]triazolo[4,3-a]pyridin-3(2H)-one] | 0.58 |
| Cc1ccc(Cn2nc3n(c2=O)[C@H](C(=O)N2CCCC2)CC3)cc1 [Example 157, (5S)-2-(4-Methylbenzyl)-5-(pyrrolidin-1-ylcarbonyl)-2,5,6,7-tetrahydro-3H-pyrrolo[2,1-c][1,2,4]triazol-3-one] | 1.3 |
| Cc1ccc(Cn2nc3n(c2=O)[C@H](C(=O)N2CCC[C@H]2C(=O)CO)CCC3)cc1 [Example 190, (5S)-5-{[(2S)-2-Glycoloylpyrrolidin-1-yl]carbonyl}-2-(4-methylbenzyl)-5,6,7,8-tetrahydro[1,2,4]triazolo[4,3-a]pyridin-3(2H)-one] | 0.13 |
| Cc1ccc(Cn2nc3n(c2=O)[C@H](C(=O)N2CC(C)C2)CCC3)cc1 [Example 192, (5S)-5-[(3-Methylazetidin-1-yl)carbonyl]-2-(4-methylbenzyl)-5,6,7,8-tetrahydro[1,2,4]triazolo[4,3-a]pyridin-3(2H)-one] | 0.32 |
| Cc1ccc(Cn2nc3n(c2=O)[C@H](C(=O)N2CCC[C@H]2C=O)CCC3)cc1 [Example 196, (2S)-1-{[(5S)-2-(4-Methylbenzyl)-3-oxo-2,3,5,6,7,8-hexahydro[1,2,4]triazolo[4,3-a]pyridin-5-yl]carbonyl}pyrrolidine-2-carbaldehyde] | 0.4 |
| O=C([C@@H]1CCCc2nn(/C=C/c3ccc(F)cc3)c(=O)n21)N1CCCC1 [Example 204, (5S)-2-[(E)-2-(4-Fluorophenyl)vinyl]-5-(pyrrolidin-1-ylcarbonyl)-5,6,7,8-tetrahydro[1,2,4]triazolo[4,3-a]pyridin-3(2H)-one] | 320 |
| O=C([C@@H]1CCCc2nn(Cc3ccc(C(F)F)nc3)c(=O)n21)N1CC[C@H](F)C1 [Example 206, (5S)-2-{[6-(Difluoromethyl)pyridin-3-yl]methyl}-5-{[(3S)-3-fluoropyrrolidin-1-yl]carbonyl}-5,6,7,8-tetrahydro[1,2,4]triazolo[4,3-a]pyridin-3(2H)-one] | 1.2 |
| O=C([C@@H]1CCCc2nn(Cc3ccc(C(F)F)nc3)c(=O)n21)N1C[C@@H](F)[C@@H](F)C1 [Example 207, (5S)-2-{[6-(Difluoromethyl)pyridin-3-yl]methyl}-5-{[(3R,4S)-3,4-difluoropyrrolidin-1-yl]carbonyl}-5,6,7,8-tetrahydro[1,2,4]triazolo[4,3-a]pyridin-3(2H)-one] | 4.2 |
| O=C([C@@H]1CCCc2nn(Cc3ccc(C(F)F)nc3)c(=O)n21)N1CC(F)C1 [Example 209, (5S)-2-{[6-(Difluoromethyl)pyridin-3-yl]methyl}-5-[(3-fluoroazetidin-1-yl)carbonyl]-5,6,7,8-tetrahydro[1,2,4]triazolo[4,3-a]pyridin-3(2H)-one] | 5.5 |
| O=C([C@@H]1CCCc2nn(Cc3cccc(Br)c3)c(=O)n21)N1C[C@@H](F)[C@@H](F)C1 [Example 211, (5S)-2-(3-Bromobenzyl)-5-{[(3R,4S)-3,4-difluoropyrrolidin-1-yl]carbonyl}-5,6,7,8-tetrahydro[1,2,4]triazolo[4,3-a]pyridin-3(2H)-one] | 0.15 |
| O=C([C@@H]1CCCc2nn(Cc3ccc(Br)cc3)c(=O)n21)N1CC[C@H](F)C1 [Example 212, (5S)-2-(4-Bromobenzyl)-5-{[(3S)-3-fluoropyrrolidin-1-yl]carbonyl}-5,6,7,8-tetrahydro[1,2,4]triazolo[4,3-a]pyridin-3(2H)-one] | 0.041 |
| O=C([C@@H]1CCCc2nn(Cc3ccc(Br)cc3F)c(=O)n21)N1C[C@@H](F)[C@@H](F)C1 [Example 215, (5S)-2-(4-Bromo-2-fluorobenzyl)-5-{[(3R,4S)-3,4-difluoropyrrolidin-1-yl]carbonyl}-5,6,7,8-tetrahydro[1,2,4]triazolo[4,3-a]pyridin-3(2H)-one] | 0.53 |

Continued by falling IC50, values first:

| IC50 [nM] | SMILES |
| --- | --- |
| 109 | Cc1ccc(Cn2nc3n(c2=O)[C@H](C(=O)N2C[C@@H](O)[C@H](F)C2)CCC3)cc1 [Example 183, (5S)-5-{[(3R,4R)-3-Fluoro-4-hydroxypyrrolidin-1-yl]carbonyl}-2-(4-methylbenzyl)-5,6,7,8-tetrahydro[1,2,4]triazolo[4,3-a]pyridin-3(2H)-one] |
| 102 | O=C([C@@H]1CCCc2nn(Cc3ccnc(C(F)(F)F)c3F)c(=O)n21)N1CC2CC1C2 [Example 187, (5S)-5-(2-Azabicyclo[2.1.1]hex-2-ylcarbonyl)-2-{[3-fluoro-2-(trifluoromethyl)pyridin-4-yl]methyl}-5,6,7,8-tetrahydro[1,2,4]triazolo[4,3-a]pyridin-3(2H)-one] |
| 59 | O=C([C@@H]1CCCc2nn(Cc3ccc(C(F)(F)F)nc3)c(=O)n21)N1CC2CC1C2 [Example 199, (5S)-5-(2-Azabicyclo[2.1.1]hex-2-ylcarbonyl)-2-{[6-(trifluoromethyl)pyridin-3-yl]methyl}-5,6,7,8-tetrahydro[1,2,4]triazolo[4,3-a]pyridin-3(2H)-one] |
| 21.3 | Cc1ccc(Cn2nc3n(c2=O)[C@H](C(=O)N2CC[C@@H]2C)CCC3)cc1 [Example 148, (5S)-5-{[(2S)-2-Methylazetidin-1-yl]carbonyl}-2-(4-methylbenzyl)-5,6,7,8-tetrahydro[1,2,4]triazolo[4,3-a]pyridin-3(2H)-one] |
| 15 | O=C([C@@H]1CCCc2nn(Cc3ccc(C(F)F)nc3)c(=O)n21)N1CCC(F)(F)C1 [Example 208, (5S)-2-{[6-(Difluoromethyl)pyridin-3-yl]methyl}-5-[(3,3-difluoropyrrolidin-1-yl)carbonyl]-5,6,7,8-tetrahydro[1,2,4]triazolo[4,3-a]pyridin-3(2H)-one] |
| 4.5 | O=C([C@@H]1CCCc2nn(CC3CC3)c(=O)n21)N1C[C@@H](F)[C@@H](F)C1 [Example 184, (5S)-2-(Cyclopropylmethyl)-5-{[(3R,4S)-3,4-difluoropyrrolidin-1-yl]carbonyl}-5,6,7,8-tetrahydro[1,2,4]triazolo[4,3-a]pyridin-3(2H)-one] |
| 3.6 | O=C([C@@H]1CC=Cc2nn(Cc3ccc(C(F)(F)F)nc3)c(=O)n21)N1CC[C@H](F)C1 [Example 276, (5S)-5-{[(3S)-3-Fluoropyrrolidin-1-yl]carbonyl}-2-{[6-(trifluoromethyl)pyridin-3-yl]methyl}-5,6-dihydro[1,2,4]triazolo[4,3-a]pyridin-3(2H)-one] |
| 2.8 | Cc1ccc(Cn2nc3n(c2=O)[C@H](C(=O)N2CC4(C2)CC4(F)F)CCC3)cc1 [Example 191, (5S)-5-[(1,1-Difluoro-5-azaspiro[2.3]hex-5-yl)carbonyl]-2-(4-methylbenzyl)-5,6,7,8-tetrahydro[1,2,4]triazolo[4,3-a]pyridin-3(2H)-one] |
| 0.93 | Cc1ccc(Cn2nc3n(c2=O)[C@H](C(=O)N2CC(CF)C2)CCC3)cc1 [Example 146, (5S)-5-{[3-(Fluoromethyl)azetidin-1-yl]carbonyl}-2-(4-methylbenzyl)-5,6,7,8-tetrahydro[1,2,4]triazolo[4,3-a]pyridin-3(2H)-one] |
| 0.77 | O=C([C@@H]1CCCc2nn(Cc3cccc(Br)c3)c(=O)n21)N1CC[C@H](F)C1 [Example 213, (5S)-2-(3-Bromobenzyl)-5-{[(3S)-3-fluoropyrrolidin-1-yl]carbonyl}-5,6,7,8-tetrahydro[1,2,4]triazolo[4,3-a]pyridin-3(2H)-one] |
| 0.69 | Cc1ccc(Cn2nc3n(c2=O)[C@H](C(=O)N2CC(C)(F)C2)CCC3)cc1 [Example 195, (5S)-5-[(3-Fluoro-3-methylazetidin-1-yl)carbonyl]-2-(4-methylbenzyl)-5,6,7,8-tetrahydro[1,2,4]triazolo[4,3-a]pyridin-3(2H)-one] |
| 0.27 | O=C([C@@H]1CCCc2nn(Cc3ccc(Br)cc3)c(=O)n21)N1C[C@@H](F)[C@@H](F)C1 [Example 210, (5S)-2-(4-Bromobenzyl)-5-{[(3R,4S)-3,4-difluoropyrrolidin-1-yl]carbonyl}-5,6,7,8-tetrahydro[1,2,4]triazolo[4,3-a]pyridin-3(2H)-one] |
| 0.2 | O=C([C@@H]1CCCc2nn(Cc3ccc(Br)cc3F)c(=O)n21)N1CC[C@H](F)C1 [Example 214, (5S)-2-(4-Bromo-2-fluorobenzyl)-5-{[(3S)-3-fluoropyrrolidin-1-yl]carbonyl}-5,6,7,8-tetrahydro[1,2,4]triazolo[4,3-a]pyridin-3(2H)-one] |
